Drawing on ChEMBL document CHEMBL1145372, “(Phenylpiperidinyl)cyclohexylsulfonamides: development of alpha1a/1d-selective adrenergic receptor antagonists for the treatment of benign prostatic hyperplasia/lower urinary tract symptoms (BPH/LUTS)” (Bioorg Med Chem Lett, 2007), this text covers Ki for 32 compounds.

One experiment concerns the target D(2) dopamine receptor (Homo sapiens, UniProt P14416). The experiment is described as follows: Binding affinity for dopamine D2 receptor.
The target in experiment [1] is T1, Alpha-1D adrenergic receptor (Homo sapiens, UniProt P25100).
T1 sequence (P25100 whole entry): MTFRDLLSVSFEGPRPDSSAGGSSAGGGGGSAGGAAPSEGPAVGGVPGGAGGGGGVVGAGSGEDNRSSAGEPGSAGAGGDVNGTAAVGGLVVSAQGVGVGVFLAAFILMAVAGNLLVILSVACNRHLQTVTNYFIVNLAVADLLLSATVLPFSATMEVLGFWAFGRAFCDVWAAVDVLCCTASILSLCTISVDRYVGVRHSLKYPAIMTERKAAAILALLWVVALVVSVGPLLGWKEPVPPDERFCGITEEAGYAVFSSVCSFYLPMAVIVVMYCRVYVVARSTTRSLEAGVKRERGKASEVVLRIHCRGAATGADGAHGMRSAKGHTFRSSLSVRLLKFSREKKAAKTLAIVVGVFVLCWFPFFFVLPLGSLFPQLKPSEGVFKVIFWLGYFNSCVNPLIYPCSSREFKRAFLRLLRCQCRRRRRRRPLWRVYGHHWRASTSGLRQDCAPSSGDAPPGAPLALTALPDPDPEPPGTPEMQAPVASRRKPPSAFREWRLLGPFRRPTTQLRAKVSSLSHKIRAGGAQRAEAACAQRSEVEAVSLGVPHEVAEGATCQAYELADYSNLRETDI
The experiment is described as follows: Binding affinity to human cloned adrenergic alpha-1d receptor.

Experiment [2] deals with T2, Alpha-1A adrenergic receptor (Homo sapiens, UniProt P35348).
T2 sequence (P35348 whole entry): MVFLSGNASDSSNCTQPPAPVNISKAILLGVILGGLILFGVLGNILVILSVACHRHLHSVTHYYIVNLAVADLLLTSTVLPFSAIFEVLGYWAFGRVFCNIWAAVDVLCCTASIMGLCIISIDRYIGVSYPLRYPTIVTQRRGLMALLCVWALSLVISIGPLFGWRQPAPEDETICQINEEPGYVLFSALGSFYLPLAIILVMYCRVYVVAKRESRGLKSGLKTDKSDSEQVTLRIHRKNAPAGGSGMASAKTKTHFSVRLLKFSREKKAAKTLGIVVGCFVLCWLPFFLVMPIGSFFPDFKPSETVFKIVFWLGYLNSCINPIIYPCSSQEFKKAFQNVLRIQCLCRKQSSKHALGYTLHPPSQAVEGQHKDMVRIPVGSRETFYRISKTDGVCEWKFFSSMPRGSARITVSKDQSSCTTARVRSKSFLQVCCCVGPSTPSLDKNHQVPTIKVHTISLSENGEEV
The experiment is described as follows: Binding affinity to human cloned adrenergic alpha-1a receptor.

Experiment [3] deals with T3, Alpha-1B adrenergic receptor (Homo sapiens, UniProt P35368).
T3 sequence (P35368 whole entry): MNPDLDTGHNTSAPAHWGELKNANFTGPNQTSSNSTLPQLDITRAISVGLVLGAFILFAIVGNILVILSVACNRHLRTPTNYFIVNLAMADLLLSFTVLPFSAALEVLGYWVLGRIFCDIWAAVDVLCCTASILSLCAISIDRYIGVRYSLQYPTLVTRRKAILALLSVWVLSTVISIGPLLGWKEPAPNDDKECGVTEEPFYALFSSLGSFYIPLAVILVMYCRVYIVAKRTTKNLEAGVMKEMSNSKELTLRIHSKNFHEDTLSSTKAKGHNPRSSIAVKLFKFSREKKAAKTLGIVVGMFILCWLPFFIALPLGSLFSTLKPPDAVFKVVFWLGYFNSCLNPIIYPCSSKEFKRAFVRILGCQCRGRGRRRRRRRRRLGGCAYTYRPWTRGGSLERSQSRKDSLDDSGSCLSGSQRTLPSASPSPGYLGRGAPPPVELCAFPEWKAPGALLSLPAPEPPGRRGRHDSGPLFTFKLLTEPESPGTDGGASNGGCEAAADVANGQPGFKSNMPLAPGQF
In words: Binding affinity to human cloned adrenergic alpha-1b receptor.

Chain of D(2) dopamine receptor (P14416 whole entry): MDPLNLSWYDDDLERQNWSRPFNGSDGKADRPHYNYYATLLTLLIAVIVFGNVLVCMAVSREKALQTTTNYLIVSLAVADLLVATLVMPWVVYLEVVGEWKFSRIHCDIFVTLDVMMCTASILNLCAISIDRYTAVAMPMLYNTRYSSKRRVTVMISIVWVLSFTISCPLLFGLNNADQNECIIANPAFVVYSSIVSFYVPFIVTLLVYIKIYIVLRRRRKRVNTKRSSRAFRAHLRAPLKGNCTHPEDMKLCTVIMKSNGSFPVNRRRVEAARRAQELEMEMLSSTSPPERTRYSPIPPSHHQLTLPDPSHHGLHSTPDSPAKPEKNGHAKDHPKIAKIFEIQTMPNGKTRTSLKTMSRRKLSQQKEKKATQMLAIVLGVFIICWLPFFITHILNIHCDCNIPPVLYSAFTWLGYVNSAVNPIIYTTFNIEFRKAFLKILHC

On to `COc1ccc(S(=O)(=O)N[C@H]2CC[C@H](N3CCC(c4ccccc4OC4CC4)CC3)CC2)cc1OC`, for which the results for the inhibition constant Ki (at D(2) dopamine receptor; in experiment [1]; in experiment [2]) were 133 nM, 34 nM and 11 nM, respectively.
For `COc1ccc(Cl)cc1S(=O)(=O)N[C@H]1CC[C@H](N2CCC(c3ccccc3OC3CC3)CC2)CC1`, the Ki on D(2) dopamine receptor came to 154 nM.
Take `O=S(=O)(N[C@H]1CC[C@@H](N2CCC(c3ccccc3OC3CC3)CC2)CC1)c1cc(Cl)ccc1F`: at D(2) dopamine receptor, the Ki was 187 nM.
Same read-out and setting: in the case of `O=S(=O)(N[C@H]1CC[C@H](N2CCC(c3ccccc3OC3CC3)CC2)CC1)c1cc(Cl)ccc1F` it was 159 nM; in that of `O=S(=O)(N[C@H]1CC[C@H](N2CCC(c3ccccc3OC3CC3)CC2)CC1)c1ccc2c(c1)OCO2`, 71 nM.
Regarding `COc1ccc(S(=O)(=O)N[C@H]2CC[C@@H](N3CCC(c4ccccc4OCC(F)(F)F)CC3)CC2)cc1OC`, the Ki in experiment [3] was 123 nM; on D(2) dopamine receptor it was 111 nM; in experiment [1], 2.2 nM; in experiment [2] it was 1.8 nM.
The corresponding values for `COc1ccc(S(=O)(=O)N[C@H]2CC[C@H](N3CCC(c4ccccc4OCC(F)(F)F)CC3)CC2)cc1OC` are 368 nM, 83 nM, 23 nM and 21 nM.
For the compound `O=S(=O)(N[C@H]1CC[C@H](N2CCC(c3ccccc3OCC(F)(F)F)CC2)CC1)c1ccc2c(c1)OCCO2`, the values for the Ki (in experiment [3]; on D(2) dopamine receptor) were 91 nM and 23 nM, respectively.
For `O=S(=O)(N[C@H]1CC[C@@H](N2CCC(c3ccccc3OCC(F)(F)F)CC2)CC1)c1cc(Cl)ccc1F`, the results for the inhibition constant Ki (on D(2) dopamine receptor; in experiment [2]) were 78 nM and 5.9 nM, respectively.
The corresponding values for `O=S(=O)(N[C@H]1CC[C@H](N2CCC(c3ccccc3OCC(F)(F)F)CC2)CC1)c1cc(Cl)ccc1F` are 37 nM and 4.8 nM.
As for `O=S(=O)(N[C@H]1CC[C@@H](N2CCC(c3ccccc3OCC(F)(F)F)CC2)CC1)c1cccc(OC(F)F)c1`, affinity on D(2) dopamine receptor was put at a Ki of 85 nM.
Still for that read-out and setting: the figure for `O=S(=O)(N[C@H]1CC[C@H](N2CCC(c3ccccc3OCC(F)(F)F)CC2)CC1)c1cccc(OC(F)F)c1` is 129 nM.
Regarding `O=S(=O)(N[C@H]1CC[C@H](N2CCC(c3ccccc3OCC(F)(F)F)CC2)CC1)c1ccc(OC(F)F)cc1`, the Ki on D(2) dopamine receptor came to 104 nM; in experiment [2] it was 38 nM.
As for `COc1ccc(S(=O)(=O)N[C@H]2CC[C@H](N3CCC(c4ccccc4OCCF)CC3)CC2)cc1OC`, the affinity on D(2) dopamine receptor, expressed as Ki, was 284 nM.
With `COc1ccc(S(=O)(=O)N[C@H]2CC[C@H](N3CCC(c4ccccc4OCC(F)F)CC3)CC2)cc1OC`, the Ki on D(2) dopamine receptor came out at 88 nM; in experiment [2] it was 31 nM.
Regarding `COc1ccc(S(=O)(=O)N[C@H]2CC[C@@H](N3CCC(c4ccc(F)cc4OC(C)C)CC3)CC2)cc1OC`, the values for the Ki (on D(2) dopamine receptor; in experiment [1]) were 106 nM and 12 nM, respectively.
At D(2) dopamine receptor, `COc1ccc(S(=O)(=O)N[C@H]2CC[C@H](N3CCC(c4ccc(F)cc4OC(C)C)CC3)CC2)cc1OC` had a Ki of 104 nM.
`COc1ccc(S(=O)(=O)N[C@H]2CC[C@@H](N3CCC(c4cc(F)ccc4OC(C)C)CC3)CC2)cc1OC`: the Ki on D(2) dopamine receptor stood at 178 nM.
As for `CC(C)Oc1ccccc1C1CCN([C@H]2CC[C@H](NS(=O)(=O)c3ccc(F)c(F)c3)CC2)CC1`, the Ki in experiment [3] stood at 1380 nM; on D(2) dopamine receptor, 79 nM; in experiment [1] it was 87 nM; in experiment [2], 1.4 nM.
On D(2) dopamine receptor, `COc1ccc(S(=O)(=O)N[C@H]2CC[C@@H](N3CCC(c4ccccc4OC4CC4)CC3)CC2)cc1OC` showed a Ki of 144 nM.
Regarding `O=S(=O)(N[C@H]1CC[C@@H](N2CCC(c3ccccc3OCC(F)(F)F)CC2)CC1)c1ccc(OC(F)F)cc1`, on D(2) dopamine receptor, the affinity, expressed as Ki, was 154 nM.
Still for that read-out and setting: the figure for `COc1ccc(S(=O)(=O)N[C@H]2CC[C@@H](N3CCC(c4ccccc4OCC(F)F)CC3)CC2)cc1OC` is 276 nM; for `COc1ccc(S(=O)(=O)N[C@H]2CC[C@H](N3CCC(c4ccccc4OC(C)C)CC3)CC2)cc1OC` it is 55 nM; for `COc1ccc(Cl)cc1S(=O)(=O)N[C@H]1CC[C@@H](N2CCC(c3ccccc3OC3CC3)CC2)CC1` it is 129 nM.
Turning to `O=S(=O)(N[C@H]1CC[C@@H](N2CCC(c3ccccc3OC3CC3)CC2)CC1)c1ccc2c(c1)OCO2`, the Ki at D(2) dopamine receptor turned out to be 66 nM; in experiment [2] it was 16 nM.
On to `COc1ccc(S(=O)(=O)N[C@H]2CC[C@@H](N3CCC(c4ccccc4OC(C)C)CC3)CC2)cc1OC`, for which the inhibition constant (Ki) on D(2) dopamine receptor came out at 144 nM; in experiment [1] it was 0.77 nM; in experiment [2], 2.2 nM.
`CC(C)Oc1ccccc1C1CCN([C@H]2CC[C@@H](NS(=O)(=O)c3ccc(F)c(F)c3)CC2)CC1` showed a Ki on D(2) dopamine receptor of 79 nM.
With `COc1ccc(Cl)cc1S(=O)(=O)N[C@H]1CC[C@H](N2CCC(c3ccccc3OCC(F)(F)F)CC2)CC1`, the figures for the Ki (at D(2) dopamine receptor; in experiment [2]) were 82 nM and 10 nM, respectively.
Regarding `COc1ccc(S(=O)(=O)N[C@H]2CC[C@H](N3CCC(c4cc(F)ccc4OC(C)C)CC3)CC2)cc1OC`, the Ki at D(2) dopamine receptor was 94 nM.
On to `O=S(=O)(N[C@H]1CC[C@@H](N2CCC(c3ccccc3OCC(F)(F)F)CC2)CC1)c1ccc2c(c1)OCCO2`, for which affinity at D(2) dopamine receptor was put at a Ki of 57 nM.
Turning to `COc1ccc(Cl)cc1S(=O)(=O)N[C@H]1CC[C@@H](N2CCC(c3ccccc3OCC(F)(F)F)CC2)CC1`, the Ki at D(2) dopamine receptor is 69 nM; in experiment [1], 1.6 nM.
As to `COc1ccc(S(=O)(=O)N[C@H]2CC[C@@H](N3CCC(c4ccccc4OCCF)CC3)CC2)cc1OC`, the Ki in experiment [3] turned out to be 401 nM; on D(2) dopamine receptor, 201 nM; in experiment [1], 5.5 nM; in experiment [2], 8.5 nM.

The term Ki denotes a measure of affinity in units of concentration, obtained from inhibition or displacement.
